According to US10722463B2, “Compositions and methods using same for delivering agents into a target organ protected by a blood barrier” (Zuli Holdings Ltd., priority 2005, dated 2020):

Tested on: blood barrier of rabbit brain
Test: Detection of liposomes in the brain and spinal cord by confocal microscopy after intravenous injection (Example 1)
Type: in vivo, New Zealand White male rabbits
Conditions: rabbits, 1.5 ml/kg intravenous, one and four hours following administration
Procedure: A particular liposome formulation was tested for crossing the blood barrier of rabbit brain.
The rabbits were perfused with 200-250 ml PBS prior to spinal cord excision (post the border of the medulla oblongata (between C1 to C2)) and brain removal as shown in FIG. 1 (frontal neocortex (frontal part), corpus callosum, hippocampus and mid brain)). The brains and spinal cords were harvested and fixed (3.7% formalin/PBS) for 10 minutes (37% formalin diluted with PBS 1:10, to a final concentration of 3.7%). The fixed brains and spinal cords were embedded in OCT compound, placed into plastic molds and frozen at −70° C. 8-10 μm tissue slices were cut using a cryotome at −20° C. and fixed on slides after which they were rinsed with PBS for 5 minutes. Finally, slides were mounted using mounting solution (80% glycerol/20% PBS) and sealed with nail polish. Slides were analyzed using confocal microscopy.

Compound	detection of fluorescent marker in spinal cord and brain tissue
O=S(=O)(O)c1cc(O)c2ccc3c(S(=O)(=O)O)cc(S(=O)(=O)O)c4ccc1c2c34 [1-Hydroxypyren-3,6,8-Trisulfonic acid]	can be detected
Rhodamin-DSPE	can be detected
